Patent US20120101083A1, “S1P1 AGONISTS COMPRISING A BICYCLIC N-CONTAINING RING” (GLAXO GROUP LIMITED, priority 2009, published 2012)
Counter-ions that a name gives are not always drawn.

How the values were obtained:
[1] = biological target: T1, S1P1 receptor (S1P1 expressing RH7777 membranes) (Homo sapiens, UniProt P21453); test: S1P1 GTPγS assay; assay type: biochemical; settings: tested in one of the above S1P1 assays (two GTPγS formats)
T1 construct: expressed in transfected cells; host or cells: RH7777 cells (membranes)
In short: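 Membranes from RH7777 cells expressing human S1P1 (1.5 μg/well) precoupled 30 min on ice to WGA SPA beads in 20 mM HEPES pH 7.4, 10 mM MgCl2, 100 mM NaCl, with 10 μM GDP and 90 μg/ml saponin. [35S]-GTPγS 0.5 nM final added with compound; SPA signal read immediately.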

[2] = biological target: T2, S1P1 (PathHunter CHO-K1 EDG1 β-Arrestin cell line) (Homo sapiens, UniProt P21453); test: S1P-1 β-Arrestin recruitment assay; assay type: cell-based; settings: CHO-K1 EDG1 β-Arrestin cells, chemi-luminescence
T2 construct: host or cells: PathHunter CHO-K1 EDG1 β-Arrestin cell line
In short: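 CHO-K1 cells expressing S1P1 and β-arrestin 2 fused to complementing β-galactosidase fragments, at 1×10^4 cells/well in pH 7.4 buffer with 0.1% BSA. Compound exposure 90 min at 37 °C then 15 min room temperature; chemiluminescent substrate added for 60 min before luminescence read.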

T1 sequence (P21453 whole entry): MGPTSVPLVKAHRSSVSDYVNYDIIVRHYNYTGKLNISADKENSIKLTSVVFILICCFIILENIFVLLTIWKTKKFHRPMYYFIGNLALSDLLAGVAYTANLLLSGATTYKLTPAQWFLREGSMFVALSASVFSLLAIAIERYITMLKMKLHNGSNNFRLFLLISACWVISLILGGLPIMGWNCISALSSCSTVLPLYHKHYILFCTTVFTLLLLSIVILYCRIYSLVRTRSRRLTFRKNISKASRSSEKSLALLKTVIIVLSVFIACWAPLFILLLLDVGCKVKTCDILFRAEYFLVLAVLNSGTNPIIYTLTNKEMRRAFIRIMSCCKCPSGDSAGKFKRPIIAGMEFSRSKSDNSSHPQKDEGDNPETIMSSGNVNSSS
T2 sequence (P21453 whole entry): as above
T2 sequence (P32121 whole entry partner): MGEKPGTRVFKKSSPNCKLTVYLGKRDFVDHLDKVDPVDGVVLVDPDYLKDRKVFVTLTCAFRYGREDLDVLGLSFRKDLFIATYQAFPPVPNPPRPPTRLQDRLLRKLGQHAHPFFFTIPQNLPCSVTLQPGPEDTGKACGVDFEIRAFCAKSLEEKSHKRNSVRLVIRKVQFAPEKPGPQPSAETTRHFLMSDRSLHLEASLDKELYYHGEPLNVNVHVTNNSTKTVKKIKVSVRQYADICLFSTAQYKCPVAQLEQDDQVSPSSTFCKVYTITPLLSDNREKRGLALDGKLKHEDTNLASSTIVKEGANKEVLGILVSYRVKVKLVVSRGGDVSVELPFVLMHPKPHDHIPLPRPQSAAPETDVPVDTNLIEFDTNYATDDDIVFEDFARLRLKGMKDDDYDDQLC

Row | SMILES | EC50 [1] [µM] | EC50 [2] [µM]
1 | Cc1c(-c2noc(-c3ccc(OC(C)C)c(C#N)c3)n2)ccc2c1CCN(C(=O)CN)C2 [Example 42, 5-[3-(2-Glycyl-5-methyl-1,2,3,4-tetrahydro-6-isoquinolinyl)-1,2,4-oxadiazol-5-yl]-2-[(1-methylethyl)oxy]benzonitrile hydrochloride] | ≤ 0.1 | ≤ 0.01
2 | CC(C)Oc1ccc(-c2nc(-c3ccc4c(c3)CCN(C(=O)CNC(CO)CO)CC4)no2)cc1C#N [Example 197, 5-[3-(3-{N-[2-hydroxy-1-(hydroxymethyl)ethyl]glycyl}-2,3,4,5-tetrahydro-1H-3-benzazepin-7-yl)-1,2,4-oxadiazol-5-yl]-2-[(1-methylethyl)oxy]benzonitrile hydrochloride] | ≤ 0.1 | ≤ 0.01
3 | CC(C)Oc1ccc(-c2nc(-c3ccc4c(c3)CCN(CC(=O)N3CC(O)C3)CC4)no2)cc1C#N [Example 93, 5-(3-{3-[2-(3-hydroxy-1-azetidinyl)-2-oxoethyl]-2,3,4,5-tetrahydro-1H-3-benzazepin-7-yl}-1,2,4-oxadiazol-5-yl)-2-[(1-methylethyl)oxy]benzonitrile hydrochloride] | ≤ 0.01 | ≤ 0.01
4 | COC(=O)NCCN1CCc2ccc(-c3noc(-c4ccc(OC(C)C)c(C#N)c4)n3)cc2CC1 [Example 100, methyl {2-[7-(5-{3-cyano-4-[(1-methylethyl)oxy]phenyl}-1,2,4-oxadiazol-3-yl)-1,2,4,5-tetrahydro-3H-3-benzazepin-3-yl]ethyl}carbamate] | ≤ 0.01 | ≤ 0.01
5 | CC(C)Nc1ncc(-c2nc(-c3ccc4c(c3)CCN(C[C@H](O)CO)CC4)no2)cc1C#N [Example 114, 5-(3-{3-[(2S)-2,3-dihydroxypropyl]-2,3,4,5-tetrahydro-1H-3-benzazepin-7-yl}-1,2,4-oxadiazol-5-yl)-2-[(1-methylethyl)amino]-3-pyridinecarbonitrile] | ≤ 1 | ≤ 0.1
6 | Cc1c(-c2noc(-c3ccc(OC(C)C)c(C#N)c3)n2)ccc2c1CCN(CCC(=O)N(C)C)C2 [Example 2, 3-[6-(5-{3-Cyano-4-[(1-methylethyl)oxy]phenyl}-1,2,4-oxadiazol-3-yl)-5-methyl-3,4-dihydro-2(1H)-isoquinolinyl]-N,N-dimethylpropanamide] | ≤ 0.1 | ≤ 0.1
7 | CC(C)Oc1ccc(-c2nnc(-c3ccc4c(c3)CCN(CCC(N)=O)C4)s2)cc1C#N [Example 47, 3-[6-(5-{3-cyano-4-[(1-methylethyl)oxy]phenyl}-1,3,4-thiadiazol-2-yl)-3,4-dihydro-2(1H)-isoquinolinyl]propanamide] | ≤ 1 | ≤ 0.1
8 | Cc1c(-c2noc(-c3ccc(OC(C)C)c(C#N)c3)n2)ccc2c1CCN(CC(=O)NC(CO)CO)CC2 [Example 186, 2-[7-(5-{3-cyano-4-[(1-methylethyl)oxy]phenyl}-1,2,4-oxadiazol-3-yl)-6-methyl-1,2,4,5-tetrahydro-3H-3-benzazepin-3-yl]-N-[2-hydroxy-1-(hydroxymethyl)ethyl]acetamide] | ≤ 0.1 | ≤ 0.01
9 | Cc1c(-c2noc(-c3ccc(OC(C)C)c(C#N)c3)n2)ccc2c1CCN(C(=O)[C@H](N)[C@@H](C)O)C2 [Example 56, 5-[3-(2-D-allothreonyl-5-methyl-1,2,3,4-tetrahydro-6-isoquinolinyl)-1,2,4-oxadiazol-5-yl]-2-[(1-methylethyl)oxy]benzonitrile] | ≤ 0.1 | ≤ 0.1
10 | CC(C)Oc1ccc(-c2nc(-c3cccc4c3CCN(C(=O)CN)C4)no2)cc1C#N [Example 87, 5-[3-(2-glycyl-1,2,3,4-tetrahydro-5-isoquinolinyl)-1,2,4-oxadiazol-5-yl]-2-[(1-methylethyl)oxy]benzonitrile hydrochloride] | ≤ 0.01 | ≤ 0.01
11 | Cc1c(-c2noc(-c3ccc(OC(C)C)c(C#N)c3)n2)ccc2c1CCN(CC(=O)NCCO)C2 [Example 122, 2-[6-(5-{3-cyano-4-[(1-methylethyl)oxy]phenyl}-1,2,4-oxadiazol-3-yl)-5-methyl-3,4-dihydro-2(1H)-isoquinolinyl]-N-(2-hydroxyethyl)acetamide hydrochloride] | ≤ 0.01 | ≤ 0.01
12 | Cc1c(-c2noc(-c3ccc(OC(C)C)c(C#N)c3)n2)ccc2c1CCN(CCCO)C2 [Example 8, 5-{3-[2-(3-Hydroxypropyl)-5-methyl-1,2,3,4-tetrahydro-6-isoquinolinyl]-1,2,4-oxadiazol-5-yl}-2-[(1-methylethyl)oxy]benzonitrile] | ≤ 0.1 | ≤ 0.01
13 | CC(C)Oc1ccc(-c2nc(-c3cccc4c3CCN(CC(O)CO)C4)no2)cc1C#N (centres unmarked) [Example 76, 5-{3-[2-(2,3-dihydroxypropyl)-1,2,3,4-tetrahydro-5-isoquinolinyl]-1,2,4-oxadiazol-5-yl}-2-[(1-methylethyl)oxy]benzonitrile] | ≤ 0.01 | ≤ 0.01
14 | Cc1c(-c2noc(-c3ccc(OC(C)C)c(C#N)c3)n2)ccc2c1CCN(C(=O)CNC[C@@H](C)O)C2 [Example 129, 5-[3-(2-{N-[(2R)-2-hydroxypropyl]glycyl}-5-methyl-1,2,3,4-tetrahydro-6-isoquinolinyl)-1,2,4-oxadiazol-5-yl]-2-[(1-methylethyl)oxy]benzonitrile hydrochloride] | > 10 | ≤ 0.01
15 | CC(C)Oc1ccc(-c2nc(-c3ccc4c(c3)CCN(CC(=O)NCCO)CC4)no2)cc1C#N [Example 111, 2-[7-(5-{3-cyano-4-[(1-methylethyl)oxy]phenyl}-1,2,4-oxadiazol-3-yl)-1,2,4,5-tetrahydro-3H-3-benzazepin-3-yl]-N-(2-hydroxyethyl)acetamide hydrochloride] | ≤ 0.1 | ≤ 0.01
16 | CC(C)Oc1ccc(-c2nc(-c3ccc4c(c3)CCN(C(=O)CN3CC(O)C3)CC4)no2)cc1C#N [Example 106, 5-(3-{3-[(3-hydroxy-1-azetidinyl)acetyl]-2,3,4,5-tetrahydro-1H-3-benzazepin-7-yl}-1,2,4-oxadiazol-5-yl)-2-[(1-methylethyl)oxy]benzonitrile hydrochloride] | ≤ 1 | ≤ 0.1
17 | COCCN1CCc2c(ccc(-c3noc(-c4ccc(OC(C)C)c(C#N)c4)n3)c2C)C1 [Example 9, 2-[(1-Methylethyl)oxy]-5-(3-{5-methyl-2-[2-(methyloxy)ethyl]-1,2,3,4-tetrahydro-6-isoquinolinyl}-1,2,4-oxadiazol-5-yl)benzonitrile] | ≤ 0.1 | ≤ 0.1
18 | Cc1c(-c2noc(-c3ccc(OC(C)C)c(C#N)c3)n2)ccc2c1CCN(C[C@H](O)CO)C2 [Example 71, 5-(3-{2-[(2S)-2,3-dihydroxypropyl]-5-methyl-1,2,3,4-tetrahydro-6-isoquinolinyl}-1,2,4-oxadiazol-5-yl)-2-[(1-methylethyl)oxy]benzonitrile hydrochloride] | ≤ 0.1 | ≤ 0.1
19 | CC(C)Oc1ccc(-c2nc(-c3ccc4c(c3)CCN(C(=O)[C@@](C)(N)CO)CC4)no2)cc1C#N [Example 81, 2-[(1-methylethyl)oxy]-5-{3-[3-(2-methyl-L-seryl)-2,3,4,5-tetrahydro-1H-3-benzazepin-7-yl]-1,2,4-oxadiazol-5-yl}benzonitrile] | ≤ 0.1 | ≤ 0.1
20 | Cc1c(-c2noc(-c3ccc(OC(C)C)c(C#N)c3)n2)ccc2c1CCN(CC(=O)N[C@H](C)CO)C2 [Example 118, 2-[6-(5-{3-cyano-4-[(1-methylethyl)oxy]phenyl}-1,2,4-oxadiazol-3-yl)-5-methyl-3,4-dihydro-2(1H)-isoquinolinyl]-N-(1R)-2-hydroxy-1-methylethyl]acetamide hydrochloride] | ≤ 0.1 | ≤ 0.01
21 | Cc1c(-c2noc(-c3cnc(OC(C)C)c(C#N)c3)n2)ccc2c1CCN(C[C@H](O)CO)C2 [Example 132, 5-(3-{2-[(2S)-2,3-dihydroxypropyl]-5-methyl-1,2,3,4-tetrahydro-6-isoquinolinyl}-1,2,4-oxadiazol-5-yl)-2-[(1-methylethyl)oxy]-3-pyridinecarbonitrile] | ≤ 1 | ≤ 0.1
22 | CCNC(=O)NCCN1CCc2ccc(-c3noc(-c4ccc(OC(C)C)c(C#N)c4)n3)cc2CC1 [Example 105, N-{2-[7-(5-{3-cyano-4-[(1-methylethyl)oxy]phenyl}-1,2,4-oxadiazol-3-yl)-1,2,4,5-tetrahydro-3H-3-benzazepin-3-yl]ethyl}-N′-ethylurea] | ≤ 0.01 | ≤ 0.1
23 | Cc1c(-c2noc(-c3ccc(OC(C)C)c(C#N)c3)n2)ccc2c1CCN(CC(=O)NC[C@H](O)CO)C2 [Example 124, 2-[6-(5-{3-cyano-4-[(1-methylethyl)oxy]phenyl}-1,2,4-oxadiazol-3-yl)-5-methyl-3,4-dihydro-2(1H)-isoquinolinyl]-N-[(2S)-2,3-dihydroxypropyl]acetamide hydrochloride] | ≤ 0.1 | ≤ 0.01
24 | CC(C)Oc1ccc(-c2nc(-c3ccc4c(c3)CCN(CCCC(=O)N(C)C)CC4)no2)cc1C#N [Example 26, 4-[7-(5-{3-Cyano-4-[(1-methylethyl)oxy]phenyl}-1,2,4-oxadiazol-3-yl)-1,2,4,5-tetrahydro-3H-3-benzazepin-3-yl]-N,N-dimethylbutanamide] | ≤ 0.1 | ≤ 0.01
25 | Cc1c(-c2noc(-c3ccc(OC(C)C)c(C#N)c3)n2)ccc2c1CCN(CC(=O)N[C@@H](C)CO)C2 [Example 119, 2-[6-(5-{3-cyano-4-[(1-methylethyl)oxy]phenyl}-1,2,4-oxadiazol-3-yl)-5-methyl-3,4-dihydro-2(1H)-isoquinolinyl]-N-[(1S)-2-hydroxy-1-methylethyl]acetamide hydrochloride] | ≤ 0.01 | ≤ 0.01
